Reference: PubChem BioAssay AID2060900 (Molecular Pharmacology Branch, DTP, NCI, 2025)
pIC50: −log10 of the molar value. Each block holds one compound with its values, some of them ahead of it.

Test system: 521955-158-R2-J5-PDC complex spheroids, viability
Experiment: Anticancer human tumor 521955-158-R2-J5-PDC patient-derived pancreatic carcinoma cell line growth inhibition [RAS]
Settings: for pIC50: curve of first compound; for viability, T/C: stronger effect = lower value
Method in brief: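 Agents were tested in combination matrices in half-log decrements from a top concentration at or near clinical Cmax (10 microM if undetermined). Targets were multi-cell spheroids of tumour lines plus HUVEC and MSC stromal cells.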
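Note: compound exposure lasted seven days before the viability read.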
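Throughout, for viability, T/C: spheroids also contain HUVEC endothelial cells and mesenchymal stem cells as stroma.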

pIC50 (second compound 0.000949 µM): > 9.02
pIC50 (second compound 0.003 µM): > 9.02
pIC50 (second compound 0.00949 µM): > 9.02
pIC50 (second compound 0.03 µM): > 9.02
pIC50 (second compound 0.0949 µM): > 9.02
pIC50 (second compound 0.3 µM): > 9.02
SMILES: CC1(C)CCC(Nc2ncc(C(F)(F)F)c(-c3c[nH]c4c(P(C)(C)=O)c(C#N)ccc34)n2)CN1 (stereo unspecified) + CCn1c(-c2cc(N3CCN(C)CC3)cnc2C(C)OC)c2c3cc(ccc31)-c1csc(n1)CC(NC(=O)C1CC1C)C(=O)N1CCCC(N1)C(=O)OCC(C)(C)C2
viability, T/C (second compound 0.000949 µM, first compound 0.000949 µM): 33.7%
viability, T/C (second compound 0.000949 µM, first compound 0.003 µM): 32%
viability, T/C (second compound 0.000949 µM, first compound 0.00949 µM): 33.4%
viability, T/C (second compound 0.000949 µM, first compound 0.03 µM): 30.9%
viability, T/C (second compound 0.000949 µM, first compound 0.0949 µM): 39.5%
viability, T/C (second compound 0.000949 µM, first compound 0.3 µM): 40.5%
viability, T/C (second compound 0.003 µM, first compound 0.000949 µM): 34.6%
viability, T/C (second compound 0.003 µM, first compound 0.003 µM): 26.5%
viability, T/C (second compound 0.003 µM, first compound 0.00949 µM): 18%
viability, T/C (second compound 0.003 µM, first compound 0.03 µM): 23.1%
viability, T/C (second compound 0.003 µM, first compound 0.0949 µM): 23.4%
viability, T/C (second compound 0.003 µM, first compound 0.3 µM): 31.7%
viability, T/C (second compound 0.00949 µM, first compound 0.000949 µM): 24.2%
viability, T/C (second compound 0.00949 µM, first compound 0.003 µM): 23.6%
viability, T/C (second compound 0.00949 µM, first compound 0.00949 µM): 20.4%
viability, T/C (second compound 0.00949 µM, first compound 0.03 µM): 16.6%
viability, T/C (second compound 0.00949 µM, first compound 0.0949 µM): 15.1%
viability, T/C (second compound 0.00949 µM, first compound 0.3 µM): 19.4%
viability, T/C (second compound 0.03 µM, first compound 0.000949 µM): 12.3%
viability, T/C (second compound 0.03 µM, first compound 0.003 µM): 17.6%
viability, T/C (second compound 0.03 µM, first compound 0.00949 µM): 9.79%
viability, T/C (second compound 0.03 µM, first compound 0.03 µM): 7.37%
viability, T/C (second compound 0.03 µM, first compound 0.0949 µM): 8.43%
viability, T/C (second compound 0.03 µM, first compound 0.3 µM): 7.63%
viability, T/C (second compound 0.0949 µM, first compound 0.000949 µM): 8.04%
viability, T/C (second compound 0.0949 µM, first compound 0.003 µM): 7.4%
viability, T/C (second compound 0.0949 µM, first compound 0.00949 µM): 8.22%
viability, T/C (second compound 0.0949 µM, first compound 0.03 µM): 5.8%
viability, T/C (second compound 0.0949 µM, first compound 0.0949 µM): 4.67%
viability, T/C (second compound 0.0949 µM, first compound 0.3 µM): 4.29%
viability, T/C (second compound 0.3 µM, first compound 0.000949 µM): 8.35%
viability, T/C (second compound 0.3 µM, first compound 0.003 µM): 7.65%
viability, T/C (second compound 0.3 µM, first compound 0.00949 µM): 4.3%
viability, T/C (second compound 0.3 µM, first compound 0.03 µM): 4.81%
viability, T/C (second compound 0.3 µM, first compound 0.0949 µM): 3.91%
viability, T/C (second compound 0.3 µM, first compound 0.3 µM): 5.79%

pIC50 (second compound 0.000949 µM): > 8.50
pIC50 (second compound 0.003 µM): > 8.50
pIC50 (second compound 0.00949 µM): > 8.50
pIC50 (second compound 0.03 µM): > 8.50
pIC50 (second compound 0.0949 µM): > 8.50
pIC50 (second compound 0.3 µM): > 8.50
SMILES: C=CC(=O)N1CCN(c2nc(OCC3CCCN3C)nc3c(F)c(-c4nc(N)cc(C)c4C(F)(F)F)c(Cl)cc23)C(C)C1 (stereo unspecified) + CCn1c(-c2cc(N3CCN(C)CC3)cnc2C(C)OC)c2c3cc(ccc31)-c1csc(n1)CC(NC(=O)C1CC1C)C(=O)N1CCCC(N1)C(=O)OCC(C)(C)C2
viability, T/C (second compound 0.000949 µM, first compound 0.00316 µM): 42.5%
viability, T/C (second compound 0.000949 µM, first compound 0.01 µM): 43.1%
viability, T/C (second compound 0.000949 µM, first compound 0.0316 µM): 45.9%
viability, T/C (second compound 0.000949 µM, first compound 0.1 µM): 45.9%
viability, T/C (second compound 0.000949 µM, first compound 0.316 µM): 57.7%
viability, T/C (second compound 0.000949 µM, first compound 1 µM): 41%
viability, T/C (second compound 0.003 µM, first compound 0.00316 µM): 39.4%
viability, T/C (second compound 0.003 µM, first compound 0.01 µM): 36.5%
viability, T/C (second compound 0.003 µM, first compound 0.0316 µM): 46.7%
viability, T/C (second compound 0.003 µM, first compound 0.1 µM): 49.3%
viability, T/C (second compound 0.003 µM, first compound 0.316 µM): 39.9%
viability, T/C (second compound 0.003 µM, first compound 1 µM): 49.5%
viability, T/C (second compound 0.00949 µM, first compound 0.00316 µM): 35%
viability, T/C (second compound 0.00949 µM, first compound 0.01 µM): 35.4%
viability, T/C (second compound 0.00949 µM, first compound 0.0316 µM): 44.3%
viability, T/C (second compound 0.00949 µM, first compound 0.1 µM): 29.6%
viability, T/C (second compound 0.00949 µM, first compound 0.316 µM): 42%
viability, T/C (second compound 0.00949 µM, first compound 1 µM): 36.1%
viability, T/C (second compound 0.03 µM, first compound 0.00316 µM): 17.1%
viability, T/C (second compound 0.03 µM, first compound 0.01 µM): 19%
viability, T/C (second compound 0.03 µM, first compound 0.0316 µM): 22.6%
viability, T/C (second compound 0.03 µM, first compound 0.1 µM): 20.2%
viability, T/C (second compound 0.03 µM, first compound 0.316 µM): 30.7%
viability, T/C (second compound 0.03 µM, first compound 1 µM): 18.6%
viability, T/C (second compound 0.0949 µM, first compound 0.00316 µM): 16.1%
viability, T/C (second compound 0.0949 µM, first compound 0.01 µM): 11.4%
viability, T/C (second compound 0.0949 µM, first compound 0.0316 µM): 11.9%
viability, T/C (second compound 0.0949 µM, first compound 0.1 µM): 13.9%
viability, T/C (second compound 0.0949 µM, first compound 0.316 µM): 15.1%
viability, T/C (second compound 0.0949 µM, first compound 1 µM): 11.9%
viability, T/C (second compound 0.3 µM, first compound 0.00316 µM): 10.8%
viability, T/C (second compound 0.3 µM, first compound 0.01 µM): 10.2%
viability, T/C (second compound 0.3 µM, first compound 0.0316 µM): 11.3%
viability, T/C (second compound 0.3 µM, first compound 0.1 µM): 12.5%
viability, T/C (second compound 0.3 µM, first compound 0.316 µM): 15.9%
viability, T/C (second compound 0.3 µM, first compound 1 µM): 9.71%

pIC50 (second compound 0.0316 µM): 7.31
pIC50 (second compound 0.1 µM): > 7.50
pIC50 (second compound 0.316 µM): > 7.50
pIC50 (second compound 1 µM): > 7.50
pIC50 (second compound 3.16 µM): > 7.50
pIC50 (second compound 10 µM): > 7.50
SMILES: CC(C)NCC(C(=O)N1CCN(c2ncnc3c2C(C)CC3O)CC1)c1ccc(Cl)cc1 (stereo unspecified) + C#Cc1c(F)ccc2cc(O)cc(-c3ncc4c(N5CC6CCC(C5)N6)nc(OCC56CCCN5CC(F)C6)nc4c3F)c12
viability, T/C (second compound 0.0316 µM, first compound 0.0316 µM): 55.1%
viability, T/C (second compound 0.0316 µM, first compound 0.1 µM): 40%
viability, T/C (second compound 0.0316 µM, first compound 0.316 µM): 36.9%
viability, T/C (second compound 0.0316 µM, first compound 1 µM): 15.6%
viability, T/C (second compound 0.0316 µM, first compound 3.16 µM): 10.7%
viability, T/C (second compound 0.0316 µM, first compound 10 µM): 10.4%
viability, T/C (second compound 0.1 µM, first compound 0.0316 µM): 45.7%
viability, T/C (second compound 0.1 µM, first compound 0.1 µM): 54.2%
viability, T/C (second compound 0.1 µM, first compound 0.316 µM): 26.8%
viability, T/C (second compound 0.1 µM, first compound 1 µM): 13.4%
viability, T/C (second compound 0.1 µM, first compound 3.16 µM): 8.3%
viability, T/C (second compound 0.1 µM, first compound 10 µM): 8.31%
viability, T/C (second compound 0.316 µM, first compound 0.0316 µM): 43.6%
viability, T/C (second compound 0.316 µM, first compound 0.1 µM): 43.2%
viability, T/C (second compound 0.316 µM, first compound 0.316 µM): 29.1%
viability, T/C (second compound 0.316 µM, first compound 1 µM): 11.7%
viability, T/C (second compound 0.316 µM, first compound 3.16 µM): 7.83%
viability, T/C (second compound 0.316 µM, first compound 10 µM): 6.31%
viability, T/C (second compound 1 µM, first compound 0.0316 µM): 43.8%
viability, T/C (second compound 1 µM, first compound 0.1 µM): 45.2%
viability, T/C (second compound 1 µM, first compound 0.316 µM): 26.9%
viability, T/C (second compound 1 µM, first compound 1 µM): 12.7%
viability, T/C (second compound 1 µM, first compound 3.16 µM): 6.2%
viability, T/C (second compound 1 µM, first compound 10 µM): 4.69%
viability, T/C (second compound 3.16 µM, first compound 0.0316 µM): 43.4%
viability, T/C (second compound 3.16 µM, first compound 0.1 µM): 38.2%
viability, T/C (second compound 3.16 µM, first compound 0.316 µM): 22%
viability, T/C (second compound 3.16 µM, first compound 1 µM): 8.28%
viability, T/C (second compound 3.16 µM, first compound 3.16 µM): 5.14%
viability, T/C (second compound 3.16 µM, first compound 10 µM): 3.32%
viability, T/C (second compound 10 µM, first compound 0.0316 µM): 32.3%
viability, T/C (second compound 10 µM, first compound 0.1 µM): 27%
viability, T/C (second compound 10 µM, first compound 0.316 µM): 15.1%
viability, T/C (second compound 10 µM, first compound 1 µM): 7.44%
viability, T/C (second compound 10 µM, first compound 3.16 µM): 3.67%
viability, T/C (second compound 10 µM, first compound 10 µM): 1.98%
